Data reported in patent publication US10472385B2, “Triterpene-glycosides as sweeteners or sweetener enhancers” (priority 2013, dated 2019).

Test system: panel of 4 panelists (sweet taste)
Assay: Organoleptic test of the compounds of formula (I) against sucrose and mogroside V
Format: in vivo
Design: key: 3 = sweeter than control, 1 = less sweet than control but still sweet
Settings: compound 0.4 mg/ml (400 ppm) in non-carbonated mineral water; for Organoleptic evaluation compared to mogroside V*: control solution mogroside V 0.1 mg/ml (100 ppm); for Organoleptic evaluation compared to sucrose*: control solution sucrose 20 mg/ml
Method: Organoleptic Test of the Compounds of Formula (I) Against Sucrose and Mogroside V
The isolated pure compounds were dissolved in non-carbonated mineral water (“Fonsana Quelle”) in a concentration of 0.4 mg/ml (400 ppm). The sweet taste of each sample was compared by a panel of 4 panelists with a solution of sucrose in a concentration of 20 mg/ml and with a solution of the known sweetener mogroside V (isolated by AnalytiCon from Momordica grosvenori) in a concentration of 0.1 mg/ml (100 ppm).
The sweetness was evaluated as follows:
3=sweeter than the control solution
1=less sweet than the control solution but still sweet

Row | Compound | Organoleptic evaluation compared to mogroside V* | Organoleptic evaluation compared to sucrose*
1 | C[C@H](CC[C@@H](O[C@@H]1O[C@H](CO)[C@@H](O)[C@H](O)[C@H]1O[C@@H]1O[C@H](CO)[C@@H](O)[C@H](O)[C@H]1O)C(C)(C)O)[C@H]1CC[C@@]2(C)[C@@H]3CC=C4C(CC[C@H](O)C4(C)C)[C@]3(C)[C@H](O)C[C@]12C (stereo partly drawn) [Compound Aa, (2S,3R,4S,5S,6R)-2-((2S,3R,4S,5S,6R)-2-((3R,6R)-6-((3S,8S,9R,11R,13R,14S,17R)-3,11-dihydroxy-4,4,9,13,14-pentamethyl-2,3,4,7,8,9,10,11,12,13,14,15,16,17-tetradecahydro-1H-cyclopenta[a]phenanthren-17-yl)-2-hydroxy-2-methylheptan-3-yloxy)-4,5-dihydroxy-6-(hydroxymethyl)tetrahydro-2H-pyran-3-yloxy)-6-(hydroxymethyl)tetrahydro-2H-pyran-3,4,5-triol] | 2 | 3
2 | C[C@H](CC[C@@H](O[C@@H]1O[C@H](CO[C@@H]2O[C@H](CO)[C@@H](O)[C@H](O)[C@H]2O)[C@@H](O)[C@H](O)[C@H]1O[C@@H]1O[C@H](CO)[C@@H](O)[C@H](O)[C@H]1O)C(C)(C)O)[C@H]1CC[C@@]2(C)C3CC=C4C(CC[C@H](O[C@@H]5O[C@H](CO)[C@@H](O[C@@H]6O[C@H](CO)[C@@H](O)[C@H](O)[C@H]6O)[C@H](O)[C@H]5O)C4(C)C)[C@]3(C)CC[C@]12C (stereo partly shown) [Compound Cc] | 3 | 3
3 | C[C@H](CC[C@@H](O[C@@H]1O[C@H](CO[C@@H]2O[C@H](CO)[C@@H](O)[C@H](O)[C@H]2O)[C@@H](O)[C@H](O)[C@H]1O[C@@H]1O[C@H](CO)[C@@H](O)[C@H](O)[C@H]1O)C(C)(C)O)[C@H]1CC[C@@]2(C)[C@@H]3CC=C4C(CC[C@H](O[C@@H]5O[C@H](CO)[C@@H](O)[C@H](O)[C@H]5O[C@@H]5O[C@H](CO)[C@@H](O)[C@H](O)[C@H]5O)C4(C)C)[C@]3(C)CC[C@]12C (stereo partly shown) [Compound Dd] | 3 | 3
4 | C[C@H](CC[C@@H](O[C@@H]1O[C@H](CO[C@@H]2O[C@H](CO)[C@@H](O)[C@H](O)[C@H]2O)[C@@H](O)[C@H](O)[C@H]1O[C@@H]1O[C@H](CO)[C@@H](O)[C@H](O)[C@H]1O)C(C)(C)O)[C@H]1CC[C@@]2(C)[C@@H]3CC=C4C(CC[C@H](O[C@@H]5O[C@H](CO)[C@@H](O)[C@H](O)[C@H]5O)C4(C)C)[C@]3(C)CC[C@]12C (stereo partly shown) [Compound Ee] | 3 | 3
5 | C[C@H](CC[C@@H](O[C@@H]1O[C@H](CO[C@@H]2O[C@H](CO)[C@@H](O)[C@H](O)[C@H]2O)[C@@H](O)[C@H](O)[C@H]1O[C@@H]1O[C@H](CO)[C@@H](O)[C@H](O)[C@H]1O)C(C)(C)O)[C@H]1CC[C@@]2(C)[C@@H]3CC=C4[C@@H](CC[C@H](O[C@@H]5O[C@H](CO)[C@@H](O)[C@H](O)[C@H]5O[C@@H]5O[C@H](CO)[C@@H](O)[C@H](O)[C@H]5O)C4(C)C)[C@]3(C)[C@H](O)C[C@]12C [Compound Ff] | 2 | 3
6 | C[C@H](CC[C@@H](O[C@@H]1O[C@H](CO)[C@@H](O)[C@H](O)[C@H]1O[C@@H]1O[C@H](CO)[C@@H](O)[C@H](O)[C@H]1O)C(C)(C)O)[C@H]1CC[C@@]2(C)C3CC=C4C(CC[C@H](O[C@@H]5O[C@H](CO)[C@@H](O)[C@H](O)[C@H]5O)C4(C)C)[C@]3(C)CC[C@]12C (stereo partly shown) [Compound Gg] | 3 | 3
7 | C[C@H](CCC(=O)C(C)(C)O)[C@H]1CC[C@@]2(C)C3CC=C4[C@@H](CC[C@H](O[C@@H]5O[C@H](CO[C@@H]6O[C@H](CO)[C@@H](O)[C@H](O)[C@H]6O)[C@@H](O)[C@H](O)[C@H]5O)C4(C)C)[C@]3(C)[C@H](O)C[C@]12C (stereo partly drawn) [Compound Hh, (6R)-2-hydroxy-6-((3S,9R,10R,11R,13R,14S,17R)-11-hydroxy-4,4,9,13,14-pentamethyl-3-((2R,3R,4S,5S,6R)-3,4,5-trihydroxy-6-(((2R,3R,4S,5S,6R)-3,4,5-trihydroxy-6-(hydroxymethyl)tetrahydro-2H-pyran-2-yloxy)methyl)tetrahydro-2H-pyran-2-yloxy)-2,3,4,7,8,9,10,11,12,13,14,15,16,17-tetradecahydro-1H-cyclopenta[a]phenanthren-17-yl)-2-methylheptan-3-one] | 1 | 2
8 | C[C@H](CC[C@@H](O[C@@H]1O[C@H](CO[C@@H]2O[C@H](CO)[C@@H](O)[C@H](O)[C@H]2O)[C@@H](O)[C@H](O)[C@H]1O[C@@H]1O[C@H](CO)[C@@H](O)[C@H](O)[C@H]1O)C(C)(C)O)[C@H]1CC[C@@]2(C)C3CC=C4[C@@H](CCC(=O)C4(C)C)[C@]3(C)[C@H](O)C[C@]12C (stereo partly shown) [Compound Jj] | 2 | 3
9 | C[C@H](CC[C@@H](O[C@@H]1O[C@H](CO[C@@H]2O[C@H](CO)[C@@H](O)[C@H](O)[C@H]2O)[C@@H](O)[C@H](O)[C@H]1O[C@@H]1O[C@H](CO)[C@@H](O)[C@H](O)[C@H]1O)C(C)(C)O)[C@H]1CC[C@@]2(C)C3CC=C4[C@@H](CC[C@H](O)C4(C)C)[C@]3(C)CC[C@]12C (stereo partly shown) [Compound Kk] | 1 | 2
10 | C[C@H](CC[C@@H](O[C@@H]1O[C@H](CO[C@@H]2O[C@H](CO)[C@@H](O)[C@H](O)[C@H]2O)[C@@H](O)[C@H](O)[C@H]1O[C@@H]1O[C@H](CO)[C@@H](O)[C@H](O)[C@H]1O)C(C)(C)O)[C@H]1CC[C@@]2(C)C3CC=C4[C@@H](CC[C@H](O[C@@H]5O[C@H](CO)[C@@H](O)[C@H](O)[C@H]5O)C4(C)C)[C@]3(C)C(=O)C[C@]12C (stereo partly shown) [Compound Ll] | 3 | 3
11 | C[C@H](CC[C@@H](O[C@@H]1O[C@H](CO[C@@H]2O[C@H](CO)[C@@H](O)[C@H](O)[C@H]2O)[C@@H](O)[C@H](O)[C@H]1O[C@@H]1O[C@H](CO)[C@@H](O)[C@H](O)[C@H]1O)C(C)(C)O)[C@H]1CC[C@@]2(C)C3CC=C4[C@@H](CC[C@H](O[C@@H]5O[C@H](CO)[C@@H](O)[C@H](O)[C@H]5O)C4(C)C)[C@]3(C)CC[C@]12C (stereo partly shown) [Compound Mm] | 3 | 3
